According to patent US20170343549A9, “METHODS FOR DETECTING AND MONITORING COLORECTAL CANCER” (REGENTS OF THE UNIVERSITY OF MINNESOTA, priority 2015, published 2017):
“Also recorded” adds a separate entry of the source.

Columns and labels:
Type in all cases: in vivo, human
TBXAS1 = test: Immunohistochemistry staining of TBXAS1 in polyps of FAP patients, aspirin users vs nonusers; conditions: epithelial cells from polyps, aspirin intake, FIG. 4B
Description: (§1) All clinical studies using human subjects or human materials were approved by the Mayo Clinic review board. Volunteers were recruited by the Gastroenterology and Hepatology group at Mayo Clinic, Rochester, Minn. Individuals in the healthy control group (n=16) were normal patients who underwent colonoscopy screening. Familial adenomatous polyposis (FAP) patients who reported taking two or more standard (325 mg) aspirin tablets per week were classified as regular aspirin users (n=14) and those reporting consumption of less aspirin were classified as aspirin nonusers (n=24) (Chan et al., 2007. N Engl J Med 356 (21):2131-2142). Individuals in the sporadic colorectal cancer group (n=20) were patients who were diagnosed with colorectal cancer, but without a family history of colorectal cancer. Other inclusion criteria were as follows: age at 18-75 years old; gender ratio approximately 1:1; and a non-smoking history.
(§2) Surgically resected human colon tissues at all clinical stages were fixed in 10% formalin overnight at room temperature. […] Immunohistochemistry staining intensity was quantified by calculating the integrated optical density (IOD, sum) of area of interest using the Image Pro-Plus 7.0 software program (Media Cybernetics, Inc., Rockville, Md.).

TBXA2R = test: Immunohistochemistry staining of TBXA2R in polyps of FAP patients, aspirin users vs nonusers; conditions: epithelial cells from polyps, aspirin intake, FIG. 4B
Description: as §1, §2

Ki-67 = test: Immunohistochemistry staining of Ki-67 in polyps of FAP patients, aspirin users vs nonusers; conditions: epithelial cells from polyps, aspirin intake, FIG. 4B
Description: as §1, §2

circulating TXA2 = test: Circulating TXA2 level in FAP patients, regular aspirin users vs nonusers (plasma enzyme immunoassay); conditions: regular aspirin use (two or more 325 mg tablets per week, n=14) vs nonusers (n=24), FIG. 4A
Description: as §1, with “history. The measurement of PGs in plasma from patients was performed using enzyme immunoassay kits from Cayman Chemical Co. (Ann Arbor, Mich.) following the manufacturer's instructions. Briefly, blood was collected from a vein in the arm just inside the elbow using a 22 gauge needle. Before blood collection, the tourniquet was applied about three inches above the selected puncture site. […]” for “history.”

the other four PGs = test: Circulating levels of the other four PGs in FAP patients, regular aspirin users vs nonusers (plasma enzyme immunoassay); conditions: regular aspirin use vs nonusers, FIG. 4A
Description: as §1, with “history. The measurement of PGs in plasma from patients was performed using enzyme immunoassay kits from Cayman Chemical Co. (Ann Arbor, Mich.) following the manufacturer's instructions. Briefly, blood was collected from a vein in the arm just inside the elbow using a 22 gauge needle. Before blood collection, the tourniquet was applied about three inches above the selected puncture site. […]” for “history.”

CC(=O)Oc1ccccc1C(=O)O [aspirin]
expression of TBXAS1 (TBXAS1): lower expression
expression of TBXA2R (TBXA2R): lower expression
expression of Ki-67 (Ki-67): lower expression
circulating TXA2 level (circulating TXA2): significant (p<0.001) decrease; also recorded: significantly decreased
levels of the other four PGs (the other four PGs): little effect
